Remaining binding data for 3 compounds are collected here from paper PMC6437697 (Journal of Medicinal Chemistry, 2019).

Holding throughout (assay): KINOMEscan
Common to all, as to type: binding
What all share (conditions): read-out: % control activity remaining

In assay [1] the target is T1, EPHA5 (Homo sapiens, UniProt P54756).
T1 construct: purchased Eurofins DiscoverX KINOMEscan

The target in assay [2] is T2, GAK (Homo sapiens, UniProt O14976).
T2 construct: purchased Eurofins DiscoverX KINOMEscan
T2 sequence (O14976 1-1311): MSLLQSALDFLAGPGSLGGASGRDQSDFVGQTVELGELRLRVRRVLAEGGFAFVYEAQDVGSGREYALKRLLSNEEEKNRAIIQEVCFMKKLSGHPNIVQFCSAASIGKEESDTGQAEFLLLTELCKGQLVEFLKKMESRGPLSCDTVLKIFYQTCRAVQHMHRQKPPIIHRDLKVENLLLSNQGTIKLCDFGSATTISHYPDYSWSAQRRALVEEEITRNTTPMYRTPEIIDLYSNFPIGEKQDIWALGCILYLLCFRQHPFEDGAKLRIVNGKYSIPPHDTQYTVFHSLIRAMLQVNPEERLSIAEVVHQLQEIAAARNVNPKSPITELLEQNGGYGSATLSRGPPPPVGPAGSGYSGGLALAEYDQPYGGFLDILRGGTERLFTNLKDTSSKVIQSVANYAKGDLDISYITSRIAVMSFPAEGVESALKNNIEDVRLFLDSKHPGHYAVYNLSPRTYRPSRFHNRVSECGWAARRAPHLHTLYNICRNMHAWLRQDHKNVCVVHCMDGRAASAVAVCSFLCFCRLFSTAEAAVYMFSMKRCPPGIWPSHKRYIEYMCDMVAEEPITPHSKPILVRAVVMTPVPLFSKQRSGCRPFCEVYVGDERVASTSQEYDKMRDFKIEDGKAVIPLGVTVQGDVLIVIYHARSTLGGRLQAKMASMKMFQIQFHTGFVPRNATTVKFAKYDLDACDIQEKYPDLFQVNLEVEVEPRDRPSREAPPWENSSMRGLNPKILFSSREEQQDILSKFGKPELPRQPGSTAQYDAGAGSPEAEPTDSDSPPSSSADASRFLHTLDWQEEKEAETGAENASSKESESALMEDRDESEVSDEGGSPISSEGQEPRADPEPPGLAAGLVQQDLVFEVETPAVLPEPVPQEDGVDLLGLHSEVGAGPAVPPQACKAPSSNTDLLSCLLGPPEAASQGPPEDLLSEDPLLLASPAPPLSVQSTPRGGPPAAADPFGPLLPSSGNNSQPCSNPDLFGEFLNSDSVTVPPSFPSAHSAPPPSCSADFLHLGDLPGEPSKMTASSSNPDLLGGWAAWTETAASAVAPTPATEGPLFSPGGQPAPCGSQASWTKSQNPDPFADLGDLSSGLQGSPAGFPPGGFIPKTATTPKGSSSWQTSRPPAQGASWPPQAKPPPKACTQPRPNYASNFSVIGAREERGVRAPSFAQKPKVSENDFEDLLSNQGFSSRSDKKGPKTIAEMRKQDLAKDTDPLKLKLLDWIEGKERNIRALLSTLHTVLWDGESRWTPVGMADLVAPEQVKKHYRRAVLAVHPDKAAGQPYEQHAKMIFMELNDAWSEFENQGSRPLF

The target of assay [3] is T3, STK33 (Homo sapiens, UniProt Q9BYT3).
T3 construct: purchased Eurofins DiscoverX KINOMEscan

For assay [4], the target named is T4, CAMK1D (Homo sapiens, UniProt Q8IU85).
T4 construct: purchased Eurofins DiscoverX KINOMEscan

Assay [5] addresses T5, PLK3 (Homo sapiens, UniProt Q9H4B4).
T5 construct: purchased Eurofins DiscoverX KINOMEscan

For assay [6], the target named is T6, ALK(L1196M) (Homo sapiens, UniProt Q9UM73, L1196M).
T6 construct: purchased Eurofins DiscoverX KINOMEscan

Assay [7] deals with T7, NEK10 (Homo sapiens, UniProt Q6ZWH5).
T7 construct: purchased Eurofins DiscoverX KINOMEscan
T7 sequence (Q6ZWH5 1-1172): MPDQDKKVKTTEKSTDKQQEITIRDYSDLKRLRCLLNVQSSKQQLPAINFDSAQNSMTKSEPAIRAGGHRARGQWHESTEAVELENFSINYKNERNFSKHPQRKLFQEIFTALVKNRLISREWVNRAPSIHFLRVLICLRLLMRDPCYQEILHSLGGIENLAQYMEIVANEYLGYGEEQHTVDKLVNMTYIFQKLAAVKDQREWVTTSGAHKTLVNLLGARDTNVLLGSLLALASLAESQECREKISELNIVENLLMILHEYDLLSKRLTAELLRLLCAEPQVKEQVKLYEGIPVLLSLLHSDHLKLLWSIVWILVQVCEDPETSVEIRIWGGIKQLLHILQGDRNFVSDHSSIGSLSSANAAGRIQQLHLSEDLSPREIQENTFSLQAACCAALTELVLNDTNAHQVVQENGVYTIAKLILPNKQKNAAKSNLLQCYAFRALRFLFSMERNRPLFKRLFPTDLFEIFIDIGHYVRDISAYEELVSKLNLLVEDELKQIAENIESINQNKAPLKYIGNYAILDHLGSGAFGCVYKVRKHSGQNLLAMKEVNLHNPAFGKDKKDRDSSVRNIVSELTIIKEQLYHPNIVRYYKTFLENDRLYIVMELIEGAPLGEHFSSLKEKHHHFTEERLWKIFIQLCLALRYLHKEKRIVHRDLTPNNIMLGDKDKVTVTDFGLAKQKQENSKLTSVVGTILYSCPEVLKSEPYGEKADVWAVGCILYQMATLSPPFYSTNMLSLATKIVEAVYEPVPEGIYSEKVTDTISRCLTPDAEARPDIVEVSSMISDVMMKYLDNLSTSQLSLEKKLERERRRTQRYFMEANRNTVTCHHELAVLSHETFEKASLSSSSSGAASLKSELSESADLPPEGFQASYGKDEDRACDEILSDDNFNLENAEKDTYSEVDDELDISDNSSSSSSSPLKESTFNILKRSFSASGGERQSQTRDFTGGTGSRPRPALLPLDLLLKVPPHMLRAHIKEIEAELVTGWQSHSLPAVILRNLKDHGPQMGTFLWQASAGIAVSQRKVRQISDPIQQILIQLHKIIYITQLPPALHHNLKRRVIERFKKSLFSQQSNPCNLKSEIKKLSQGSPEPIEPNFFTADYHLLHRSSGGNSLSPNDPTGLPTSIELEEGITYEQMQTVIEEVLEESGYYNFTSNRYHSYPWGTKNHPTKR

T5 sequence (Q9H4B4 whole entry): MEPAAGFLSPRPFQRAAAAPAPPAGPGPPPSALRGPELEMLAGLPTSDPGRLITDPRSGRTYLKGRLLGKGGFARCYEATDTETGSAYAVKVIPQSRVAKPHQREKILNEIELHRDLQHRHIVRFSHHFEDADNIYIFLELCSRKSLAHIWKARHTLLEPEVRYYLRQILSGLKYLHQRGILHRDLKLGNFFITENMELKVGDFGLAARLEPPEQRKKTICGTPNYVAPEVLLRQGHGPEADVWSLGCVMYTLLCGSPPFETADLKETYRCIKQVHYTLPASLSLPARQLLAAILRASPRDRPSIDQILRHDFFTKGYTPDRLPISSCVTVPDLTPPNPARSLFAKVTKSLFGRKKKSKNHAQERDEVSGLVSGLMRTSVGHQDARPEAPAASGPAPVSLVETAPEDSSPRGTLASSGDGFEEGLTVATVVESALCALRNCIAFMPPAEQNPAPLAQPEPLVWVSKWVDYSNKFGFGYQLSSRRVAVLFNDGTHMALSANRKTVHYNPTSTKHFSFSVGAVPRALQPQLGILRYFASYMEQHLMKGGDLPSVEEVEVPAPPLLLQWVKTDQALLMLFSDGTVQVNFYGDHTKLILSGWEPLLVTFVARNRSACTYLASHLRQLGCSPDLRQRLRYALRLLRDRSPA
T3 sequence (Q9BYT3 whole entry): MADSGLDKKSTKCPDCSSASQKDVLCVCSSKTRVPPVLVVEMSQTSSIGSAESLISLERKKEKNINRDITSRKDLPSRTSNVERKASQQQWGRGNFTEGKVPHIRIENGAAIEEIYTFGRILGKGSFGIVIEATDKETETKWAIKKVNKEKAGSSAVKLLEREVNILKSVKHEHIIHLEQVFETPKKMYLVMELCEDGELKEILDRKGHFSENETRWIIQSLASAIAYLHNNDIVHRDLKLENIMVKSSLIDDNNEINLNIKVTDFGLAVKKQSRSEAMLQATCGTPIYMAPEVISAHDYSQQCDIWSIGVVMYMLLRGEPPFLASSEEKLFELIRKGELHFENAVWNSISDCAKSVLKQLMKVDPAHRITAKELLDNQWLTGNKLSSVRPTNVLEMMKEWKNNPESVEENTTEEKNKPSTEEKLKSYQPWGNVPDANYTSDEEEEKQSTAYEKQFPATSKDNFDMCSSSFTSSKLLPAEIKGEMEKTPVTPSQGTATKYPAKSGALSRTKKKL
T4 sequence (Q8IU85 whole entry): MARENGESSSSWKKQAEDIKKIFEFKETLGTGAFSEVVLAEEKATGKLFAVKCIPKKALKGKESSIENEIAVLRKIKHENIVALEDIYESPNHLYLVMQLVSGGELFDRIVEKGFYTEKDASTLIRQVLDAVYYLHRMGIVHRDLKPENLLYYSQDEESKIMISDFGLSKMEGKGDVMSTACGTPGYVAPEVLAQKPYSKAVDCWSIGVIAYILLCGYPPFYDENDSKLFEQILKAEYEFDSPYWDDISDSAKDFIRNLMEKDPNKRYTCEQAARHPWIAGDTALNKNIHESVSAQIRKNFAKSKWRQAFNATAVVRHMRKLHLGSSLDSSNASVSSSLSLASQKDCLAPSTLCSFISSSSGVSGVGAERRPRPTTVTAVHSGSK
T6 sequence (Q9UM73 19-1620 L1196M): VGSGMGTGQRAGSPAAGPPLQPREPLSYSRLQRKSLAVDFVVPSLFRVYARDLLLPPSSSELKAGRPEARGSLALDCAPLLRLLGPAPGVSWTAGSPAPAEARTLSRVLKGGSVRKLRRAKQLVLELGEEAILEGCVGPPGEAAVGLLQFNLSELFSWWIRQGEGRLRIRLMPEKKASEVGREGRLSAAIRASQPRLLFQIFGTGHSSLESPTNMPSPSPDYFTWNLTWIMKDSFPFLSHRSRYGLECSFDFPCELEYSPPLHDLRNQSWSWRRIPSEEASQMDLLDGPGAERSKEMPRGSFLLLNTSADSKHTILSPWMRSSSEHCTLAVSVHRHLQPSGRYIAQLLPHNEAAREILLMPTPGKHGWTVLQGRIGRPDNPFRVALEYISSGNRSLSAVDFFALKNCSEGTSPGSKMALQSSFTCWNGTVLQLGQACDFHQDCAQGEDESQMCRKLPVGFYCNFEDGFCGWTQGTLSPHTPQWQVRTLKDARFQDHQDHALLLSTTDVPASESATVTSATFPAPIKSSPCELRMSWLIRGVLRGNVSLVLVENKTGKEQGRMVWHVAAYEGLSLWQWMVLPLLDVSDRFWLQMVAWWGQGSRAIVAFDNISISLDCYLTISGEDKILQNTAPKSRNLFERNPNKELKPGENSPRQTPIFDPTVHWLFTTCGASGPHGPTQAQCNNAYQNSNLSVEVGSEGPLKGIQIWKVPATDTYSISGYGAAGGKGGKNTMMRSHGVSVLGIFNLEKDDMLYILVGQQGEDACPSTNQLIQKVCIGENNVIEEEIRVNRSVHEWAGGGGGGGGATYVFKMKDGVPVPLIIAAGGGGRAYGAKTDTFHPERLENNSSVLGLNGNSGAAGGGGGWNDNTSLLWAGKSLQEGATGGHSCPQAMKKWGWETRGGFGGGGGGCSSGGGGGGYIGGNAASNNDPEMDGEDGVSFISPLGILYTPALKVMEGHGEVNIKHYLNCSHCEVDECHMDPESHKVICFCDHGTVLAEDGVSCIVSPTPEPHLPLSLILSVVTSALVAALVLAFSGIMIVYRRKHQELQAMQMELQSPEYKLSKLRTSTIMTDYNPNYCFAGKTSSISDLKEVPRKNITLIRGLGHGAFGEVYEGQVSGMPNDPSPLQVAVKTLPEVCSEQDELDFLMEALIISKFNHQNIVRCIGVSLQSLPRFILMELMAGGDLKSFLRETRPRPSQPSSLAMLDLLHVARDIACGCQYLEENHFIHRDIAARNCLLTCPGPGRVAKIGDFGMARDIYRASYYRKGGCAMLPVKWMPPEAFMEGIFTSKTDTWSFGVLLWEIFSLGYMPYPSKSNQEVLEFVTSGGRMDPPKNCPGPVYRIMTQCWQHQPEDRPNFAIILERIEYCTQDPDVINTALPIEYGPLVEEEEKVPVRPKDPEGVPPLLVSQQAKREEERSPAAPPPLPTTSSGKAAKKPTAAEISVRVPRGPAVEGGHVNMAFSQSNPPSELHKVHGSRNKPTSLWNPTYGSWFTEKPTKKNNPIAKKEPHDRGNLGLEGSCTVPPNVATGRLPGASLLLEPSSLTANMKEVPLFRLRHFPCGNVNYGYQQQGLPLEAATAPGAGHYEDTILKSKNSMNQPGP
T1 sequence (P54756 25-1037): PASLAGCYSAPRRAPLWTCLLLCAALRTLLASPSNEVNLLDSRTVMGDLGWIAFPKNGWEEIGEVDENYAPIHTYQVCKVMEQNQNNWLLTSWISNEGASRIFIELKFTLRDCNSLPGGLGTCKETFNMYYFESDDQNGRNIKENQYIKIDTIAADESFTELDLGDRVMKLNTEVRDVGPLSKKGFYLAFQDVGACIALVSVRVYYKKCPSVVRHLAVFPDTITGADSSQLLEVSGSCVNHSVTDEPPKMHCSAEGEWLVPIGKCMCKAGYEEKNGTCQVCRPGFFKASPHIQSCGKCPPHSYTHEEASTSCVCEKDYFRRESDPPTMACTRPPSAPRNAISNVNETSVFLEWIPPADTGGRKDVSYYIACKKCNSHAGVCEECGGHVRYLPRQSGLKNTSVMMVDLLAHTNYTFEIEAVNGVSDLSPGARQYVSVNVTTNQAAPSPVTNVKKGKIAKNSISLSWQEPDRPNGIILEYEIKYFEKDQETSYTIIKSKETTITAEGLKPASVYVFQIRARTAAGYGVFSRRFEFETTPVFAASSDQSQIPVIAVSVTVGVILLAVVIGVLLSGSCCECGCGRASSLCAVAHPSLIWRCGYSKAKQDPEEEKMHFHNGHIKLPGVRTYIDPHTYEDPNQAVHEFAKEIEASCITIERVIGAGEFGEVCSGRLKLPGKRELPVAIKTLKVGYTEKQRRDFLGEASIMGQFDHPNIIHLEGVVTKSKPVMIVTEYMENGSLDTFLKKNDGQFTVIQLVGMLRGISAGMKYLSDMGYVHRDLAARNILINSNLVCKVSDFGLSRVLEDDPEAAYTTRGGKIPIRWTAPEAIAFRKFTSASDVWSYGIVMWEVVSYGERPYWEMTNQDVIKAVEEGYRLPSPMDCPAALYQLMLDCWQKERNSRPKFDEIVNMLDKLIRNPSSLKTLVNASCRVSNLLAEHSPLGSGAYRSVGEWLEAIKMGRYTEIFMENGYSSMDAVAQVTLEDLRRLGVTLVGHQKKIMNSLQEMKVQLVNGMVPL

Consider `Clc1cc(NCC2CC2)c2ncc(-c3ccc4[nH]ncc4c3)n2n1` [compound 2, 6-Chloro-N-(cyclopropylmethyl)-3-(1H-indazol-5-yl)imidazo[1,2-b]pyridazin-8-amine], for which the remaining binding at 1 µM in assay [1] came to 99%; in assay [2], 8.8%; in assay [3], 47%; in assay [4], 100%; in assay [5], 90%; in assay [6] it was 77%. In assay [7], the remaining binding at 1 µM turned out to be 92%.

For the compound `O=C(CN1CCOCC1)N[C@H]1CC[C@H](Nc2cc(Cl)nn3c(-c4ccc5[nH]ncc5c4)cnc23)CC1` [compound 26], the remaining binding at 1 µM in assay [1] worked out at 93%; in assay [2], 10%; in assay [3] it was 25%; in assay [4], 71%; in assay [5], 89%; in assay [6], 90%. Besides, the remaining binding at 1 µM in assay [7] worked out at 72%.

With `CN1CCC(CNc2cc(Cl)nn3c(-c4cc5nc(Nc6ccccc6)[nH]c5cc4F)cnc23)CC1` [compound 31, 6-Chloro-3-(6-fluoro-2-(phenylamino)-1H-benzo[d]imidazol-5-yl)-N-((1-methylpiperidin-4-yl)methyl)imidazo[1,2-b]pyridazin-8-amine], the remaining binding at 1 µM is 99% in assay [1]; 33% in assay [2]; 100% in assay [3]; 85% in assay [4]; 90% in assay [5]; 94% in assay [6]. Moreover, the remaining binding at 1 µM in assay [7] came to 100%.
